We go through 3 compounds from paper PMC6964137 (The Oncologist, 2019).

Structures are written as SMILES. Like-named read-outs stand apart in the source and are kept apart here.

Data set [1] can be described thus: Plasma pharmacokinetics, Cycle 1. It is filed as in vivo, patients.
For data set [2] the following is noted: cited from earlier work.
The subject of data set [3] is NRAS- and BRAF-mutant melanoma. Conditions: single agent, cited from earlier work.
For data set [4] the following is noted: cited from earlier work. The source holds these as a separate data set.
In data set [5] the test system is ovarian cancer. The settings on record: single agent, irrespective of BRAF or KRAS status; cited from earlier work.

The AUC is the area under the concentration-time curve, a measure of exposure. `Cn1cnc2c(F)c(Nc3ccc(Br)cc3F)c(C(=O)NOCCO)cc21` [binimetinib]: in data set [1] (human, plasma, oral, mean AUCtau, binimetinib 45 mg b.i.d. and buparlisib 80 mg q.d.), the AUC turned out to be 2670 ng·h/mL. For the same compound, the “Effect of buparlisib on PK of binimetinib” value in data set [1] (in vivo) was “not altered by buparlisib”. In data set [2], the “MTD, single agent” value was 60 mg b.i.d. In addition, in data set [2] (single-agent phase I study, same dosing schedule), the “mean AUCtau” value is listed as 1,740 ng•hour/mL. The Objective response rate in data set [3] (BRAF-mutant melanoma) is 6%; in data set [3] (NRAS-mutant melanoma) it was 11%.

A word on the Cmax: it is the maximum level reached in the sampled fluid or tissue. In the case of `Nc1cc(C(F)(F)F)c(-c2cc(N3CCOCC3)nc(N3CCOCC3)n2)cn1` [buparlisib], the “MTD, single agent” value in data set [4] was 100 mg once daily (q.d.). Also, the AUCtau in data set [4] (single-agent study) is listed as 15,413 ng•hour/mL. The Cmax in data set [4] (single-agent study) was 1,098 ng/mL; in data set [1] (human, plasma, oral, Cmax, present study, combination at RP2D), 764 ng/mL. Moreover, the AUC in data set [1] (human, plasma, oral, AUCtau, present study, combination at RP2D) amounted to 11700 ng·h/mL. In addition, the “Reduction of Cmax and AUCtau when combined with binimetinib” value in data set [1] (in many patients, versus single-agent data) was more than 50%.

For the compound `Cn1cnc2c(F)c(Nc3ccc(Br)cc3Cl)c(C(=O)NOCCO)cc21` [selumetinib], the Response rate in data set [5] was 15%.
